Data reported in patent US10022387B2, “Aza-heteroaryl compounds as PI3K-gamma inhibitors” (Incyte Corporation, priority 2015, dated 2018).

Key:
[1] = target: PI3Kδ (p110δ/p85α) Recombinant Human Protein (Homo sapiens (Human), UniProt O00329); assay: PI3Kδ Scintillation Proximity Assay; assay type: biochemical; details: 20 μM PIP2, 2 μM ATP, 3.4 nM PI3Kδ, 120 min; read-out: PI3K-delta SPA IC50
Description: [γ-^33P]ATP (10 mCi/mL) and Wheat Germ Agglutinin (WGA) YSi SPA Scintillation Beads was purchased from Perkin-Elmer (Waltham, Mass.). Lipid kinase substrate, D-myo-Phosphatidylinositol 4,5-bisphosphate (PtdIns(4,5)P2)D (+)-sn-1,2-di-O-octanoylglyceryl, 3-O-phospho linked (PIP2), CAS 204858-53-7, was purchased from Echelon Biosciences (Salt Lake City, Utah). PI3Kδ (p110δ/p85α) Recombinant Human Protein was purchased from Eurofins (St. Charles, Mo.). ATP, MgCl2, DTT, EDTA, MOPS and CHAPS were purchased from Sigma-Aldrich (St. Louis, Mo.).
The kinase reaction was conducted in polystyrene 384-well Greiner Bio-one white plate from Thermo Fisher Scientific in a final volume of 25 μL. Inhibitors were first diluted serially in DMSO and added to the plate wells before the addition of other reaction components. The final concentration of DMSO in the assay was 2%. The PI3Kδ assay was carried out at room temperature in 20 mM MOPS, pH 6.7, 10 mM MgCl2, 5 mM DTT and CHAPS 0.03%. Reactions were initiated by the addition of ATP, the final reaction mixture consisted of 20 μM PIP2, 2 μM ATP, 0.5 μCi [γ-^33P] ATP, 3.4 nM PI3Kδ. […] After the plate sealing, plates were shaken overnight at room temperature and centrifuged at 1500 rpm for 10 min, the radioactivity of the product was determined by scintillation counting on Topcount (Perkin-Elmer). […]

[2] = system: Phosphorylated Ribosomal Protein S6 (RPS6) in THP-1 cells; assay: THP-1 RPS6 ELISA Assay; assay type: cell-based; details: Homo sapiens, 2 hours with compound, 10 nM MCP-1 for 15 minutes, read-out: THP p-RPS6 ELISA IC50
Description: To measure the Phosphorylated Ribosomal Protein S6 (RPS6) in cell lysates, THP-1 cells (Human Acute Monocytic Leukemia) are purchased from ATCC (Manassas, Va.) and maintained in RPMI with 10% FBS (Gibco/Life Technologies, Carlsbad, Calif.). For the assay, THP-1 cells are serum starved overnight in RPMI, then plated in RPMI (2×10^5 cells/well in 90 μL) into 96-well flat-bottom tissue culture treated plates (Corning, Corning, N.Y.), in the presence or absence of a concentration range of test compounds. Covered plates are incubated for 2 hours at 37° C., 5% CO2 then treated with or without 10 nM MCP-1 (MYBioSource, San Diego, Calif.) for 15 minutes at 37° C., 5% CO2. Plates are centrifuged at 1600 RPM and supernatants are removed. Cells are lysed in Lysis Buffer (Cell Signaling, Danvers, Mass.) with Protease Inhibitor (Calbiochem/EMD, Germany), PMSF (Sigma, St. Louis, Mo.), HALTS (Thermo Fisher, Rockford, Ill.) for 30 min on wet ice. Cell lysates are frozen at −80° C. before testing. The lysates are tested in the Human/Mouse/Rat Phospho-RPS6 ELISA (R&D Systems, Inc. Minn, Minn.). The plate is measured using a microplate reader (SpectraMax M5—Molecular Devices, LLC Sunnyvale, Calif.) set to 450 nm with a wavelength correction of 540. IC50 determination is performed by fitting the curve of inhibitor percent inhibition versus the log of the inhibitor concentration using the GraphPad Prism 5.0 software.

Chain of PI3Kδ (p110δ/p85α) Recombinant Human Protein (O00329 whole entry): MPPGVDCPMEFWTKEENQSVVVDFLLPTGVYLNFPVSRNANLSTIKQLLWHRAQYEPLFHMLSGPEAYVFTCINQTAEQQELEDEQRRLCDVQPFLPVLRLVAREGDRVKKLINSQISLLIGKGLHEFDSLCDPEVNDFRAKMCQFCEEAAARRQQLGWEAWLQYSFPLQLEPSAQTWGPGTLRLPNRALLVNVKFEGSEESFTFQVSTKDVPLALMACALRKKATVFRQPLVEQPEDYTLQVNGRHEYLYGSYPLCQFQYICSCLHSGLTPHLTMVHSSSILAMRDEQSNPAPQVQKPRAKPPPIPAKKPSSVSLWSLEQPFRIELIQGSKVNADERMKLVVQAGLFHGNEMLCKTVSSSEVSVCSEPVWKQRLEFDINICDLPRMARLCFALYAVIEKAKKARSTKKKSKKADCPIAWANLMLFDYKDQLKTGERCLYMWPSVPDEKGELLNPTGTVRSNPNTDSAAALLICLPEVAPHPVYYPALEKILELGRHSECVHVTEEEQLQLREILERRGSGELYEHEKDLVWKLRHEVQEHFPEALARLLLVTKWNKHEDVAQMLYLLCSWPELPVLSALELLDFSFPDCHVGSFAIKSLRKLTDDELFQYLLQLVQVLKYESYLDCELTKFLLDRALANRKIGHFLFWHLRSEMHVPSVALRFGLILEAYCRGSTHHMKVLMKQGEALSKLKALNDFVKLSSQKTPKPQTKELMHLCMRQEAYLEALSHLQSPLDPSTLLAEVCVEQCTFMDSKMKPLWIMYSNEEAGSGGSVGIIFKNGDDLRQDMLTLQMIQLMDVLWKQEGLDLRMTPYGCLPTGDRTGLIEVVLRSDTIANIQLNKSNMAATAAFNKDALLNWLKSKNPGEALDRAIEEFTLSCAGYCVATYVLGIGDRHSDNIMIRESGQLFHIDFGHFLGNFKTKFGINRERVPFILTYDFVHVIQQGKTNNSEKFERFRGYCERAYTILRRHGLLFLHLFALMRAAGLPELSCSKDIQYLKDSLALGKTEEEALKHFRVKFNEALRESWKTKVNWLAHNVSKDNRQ
Chain of PI3Kδ (p110δ/p85α) Recombinant Human Protein (P27986 whole entry partner): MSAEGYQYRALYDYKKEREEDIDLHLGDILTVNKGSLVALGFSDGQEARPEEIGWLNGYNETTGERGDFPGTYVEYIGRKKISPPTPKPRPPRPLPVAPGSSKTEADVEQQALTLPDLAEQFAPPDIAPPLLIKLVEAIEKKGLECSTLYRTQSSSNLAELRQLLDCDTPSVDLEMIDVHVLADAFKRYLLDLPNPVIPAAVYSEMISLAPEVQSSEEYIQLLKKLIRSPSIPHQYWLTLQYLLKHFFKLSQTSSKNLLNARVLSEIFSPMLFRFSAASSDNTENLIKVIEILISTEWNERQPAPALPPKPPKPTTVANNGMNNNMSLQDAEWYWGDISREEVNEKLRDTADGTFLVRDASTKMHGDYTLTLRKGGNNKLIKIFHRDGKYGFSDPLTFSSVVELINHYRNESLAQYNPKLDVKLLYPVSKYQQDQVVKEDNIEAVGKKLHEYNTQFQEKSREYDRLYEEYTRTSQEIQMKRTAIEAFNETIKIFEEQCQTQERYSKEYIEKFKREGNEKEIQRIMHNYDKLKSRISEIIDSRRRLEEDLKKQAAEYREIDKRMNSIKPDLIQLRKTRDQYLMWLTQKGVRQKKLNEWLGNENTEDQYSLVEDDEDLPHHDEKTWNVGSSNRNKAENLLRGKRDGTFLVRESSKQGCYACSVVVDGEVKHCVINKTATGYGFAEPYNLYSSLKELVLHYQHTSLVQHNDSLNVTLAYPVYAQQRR

## CCS(=O)(=O)Nc1cncc(-c2ccc3nc(-c4nc5ccccc5[nH]4)oc3c2)c1 [Example 18, N-(5-(2-(1H-Benzo[d]imidazol-2-yl)benzo[d]oxazol-6-yl)pyridin-3-yl)ethanesulfonamide]
[1]
  IC50: < 1 µM
[2]
  IC50: ≥ 5 µM
